{"source": "paper PMC5791972", "about": "(PLoS ONE, 2018)", "key": {"C57BL/6J mice": {"system": "C57BL/6J mice", "experiment": "Pavlovian fear learning and memory, non-manipulated mice", "type": "in vivo, mouse", "conditions": "1 or 3 mg/kg oral, 2 h before"}, "COX2 (h)": {"target": "T1, COX2 (h) (Homo sapiens, UniProt P35354)", "T1 construct": "Cerep (contract assay); host or cells: Sf9 cells", "T1 sequence (P35354 18-604)": "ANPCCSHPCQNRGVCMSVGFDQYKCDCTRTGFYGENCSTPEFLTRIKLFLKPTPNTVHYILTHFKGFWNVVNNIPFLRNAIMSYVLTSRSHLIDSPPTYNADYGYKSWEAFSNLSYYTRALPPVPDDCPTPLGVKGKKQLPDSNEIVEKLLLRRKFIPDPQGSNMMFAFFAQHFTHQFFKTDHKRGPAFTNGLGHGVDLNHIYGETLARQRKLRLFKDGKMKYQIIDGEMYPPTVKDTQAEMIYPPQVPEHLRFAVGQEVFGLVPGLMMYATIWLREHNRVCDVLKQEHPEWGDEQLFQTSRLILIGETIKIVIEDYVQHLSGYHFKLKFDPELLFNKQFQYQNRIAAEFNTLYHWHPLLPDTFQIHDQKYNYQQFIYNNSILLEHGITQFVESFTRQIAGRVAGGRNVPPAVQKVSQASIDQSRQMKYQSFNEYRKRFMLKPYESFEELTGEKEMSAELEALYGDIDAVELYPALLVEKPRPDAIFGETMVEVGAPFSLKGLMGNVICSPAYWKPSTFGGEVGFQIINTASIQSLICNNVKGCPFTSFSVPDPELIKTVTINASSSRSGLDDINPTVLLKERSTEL", "experiment": "enzyme assay", "type": "biochemical", "conditions": "1.0E-06 M"}, "TR (TH)": {"system": "TR (TH)", "type": "binding, rat", "conditions": "1.0E-06 M"}, "motilin (h)": {"target": "T2, motilin (h) (Homo sapiens, UniProt O43193)", "T2 construct": "host or cells: CHO cells", "T2 sequence (O43193 whole entry)": "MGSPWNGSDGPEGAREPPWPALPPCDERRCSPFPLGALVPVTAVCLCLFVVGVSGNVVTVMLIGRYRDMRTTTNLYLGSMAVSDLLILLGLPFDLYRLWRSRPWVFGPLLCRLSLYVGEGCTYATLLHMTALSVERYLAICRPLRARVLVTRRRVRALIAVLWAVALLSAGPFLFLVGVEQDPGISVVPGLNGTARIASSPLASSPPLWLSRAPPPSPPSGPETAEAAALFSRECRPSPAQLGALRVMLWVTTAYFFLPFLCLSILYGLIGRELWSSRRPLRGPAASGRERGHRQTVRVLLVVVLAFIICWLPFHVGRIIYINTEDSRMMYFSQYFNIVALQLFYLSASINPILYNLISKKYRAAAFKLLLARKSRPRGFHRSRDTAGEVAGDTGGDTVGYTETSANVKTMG", "type": "binding"}, "ATPase (Na+/K+)": {"system": "ATPase (Na+/K+)", "experiment": "enzyme assay", "type": "biochemical, porcine", "conditions": "1.0E-06 M"}, "5-HT6 (h)": {"target": "5-HT6 (h) (Homo sapiens, UniProt P50406)", "sequence (P50406 whole entry)": "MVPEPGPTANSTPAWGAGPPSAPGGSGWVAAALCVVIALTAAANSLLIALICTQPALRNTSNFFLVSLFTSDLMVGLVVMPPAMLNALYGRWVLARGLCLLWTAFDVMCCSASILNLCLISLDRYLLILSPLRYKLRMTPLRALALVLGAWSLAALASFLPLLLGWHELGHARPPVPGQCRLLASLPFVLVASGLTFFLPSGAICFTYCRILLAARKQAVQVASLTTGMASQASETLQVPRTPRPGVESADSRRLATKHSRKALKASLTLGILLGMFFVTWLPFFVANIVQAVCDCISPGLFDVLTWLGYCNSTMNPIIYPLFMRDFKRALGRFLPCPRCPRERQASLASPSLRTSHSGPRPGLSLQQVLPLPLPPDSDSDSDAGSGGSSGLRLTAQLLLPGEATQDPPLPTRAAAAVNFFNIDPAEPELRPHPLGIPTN", "experiment": "biochemical"}, "ACE (h)": {"target": "T3, ACE (h) (Homo sapiens, UniProt P12821)", "T3 construct": "Cerep (contract assay)", "T3 sequence (P12821 30-1306)": "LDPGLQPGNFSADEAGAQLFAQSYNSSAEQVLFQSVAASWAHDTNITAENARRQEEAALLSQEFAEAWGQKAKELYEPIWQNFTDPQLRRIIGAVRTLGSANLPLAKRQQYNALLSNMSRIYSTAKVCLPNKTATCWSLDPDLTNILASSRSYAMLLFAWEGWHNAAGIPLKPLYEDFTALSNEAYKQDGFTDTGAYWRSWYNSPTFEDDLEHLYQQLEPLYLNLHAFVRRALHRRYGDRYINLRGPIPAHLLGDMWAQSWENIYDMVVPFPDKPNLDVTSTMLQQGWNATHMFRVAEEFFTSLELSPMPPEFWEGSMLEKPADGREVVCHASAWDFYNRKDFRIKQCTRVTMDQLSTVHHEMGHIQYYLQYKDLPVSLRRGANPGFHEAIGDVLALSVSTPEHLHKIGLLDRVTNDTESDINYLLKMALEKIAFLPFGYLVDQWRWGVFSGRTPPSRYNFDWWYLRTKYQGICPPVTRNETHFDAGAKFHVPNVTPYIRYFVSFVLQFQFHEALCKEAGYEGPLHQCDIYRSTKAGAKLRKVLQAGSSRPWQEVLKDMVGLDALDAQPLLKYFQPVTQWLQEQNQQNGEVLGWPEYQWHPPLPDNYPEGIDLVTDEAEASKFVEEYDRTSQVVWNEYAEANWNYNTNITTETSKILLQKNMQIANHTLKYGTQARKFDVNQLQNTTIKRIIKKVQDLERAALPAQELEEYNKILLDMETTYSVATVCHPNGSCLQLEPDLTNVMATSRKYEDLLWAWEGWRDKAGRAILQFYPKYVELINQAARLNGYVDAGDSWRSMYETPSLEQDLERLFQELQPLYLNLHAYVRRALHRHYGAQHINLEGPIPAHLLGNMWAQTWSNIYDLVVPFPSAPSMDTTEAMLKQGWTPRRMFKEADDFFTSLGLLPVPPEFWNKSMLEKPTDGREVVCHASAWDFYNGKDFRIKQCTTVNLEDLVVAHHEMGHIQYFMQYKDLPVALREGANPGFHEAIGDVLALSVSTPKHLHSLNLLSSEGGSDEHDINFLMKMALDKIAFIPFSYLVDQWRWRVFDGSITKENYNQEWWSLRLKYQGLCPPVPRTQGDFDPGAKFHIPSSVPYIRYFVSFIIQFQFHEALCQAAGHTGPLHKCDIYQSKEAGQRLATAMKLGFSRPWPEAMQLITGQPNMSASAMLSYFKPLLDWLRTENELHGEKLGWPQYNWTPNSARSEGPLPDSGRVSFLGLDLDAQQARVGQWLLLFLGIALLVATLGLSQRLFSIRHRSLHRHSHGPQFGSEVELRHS", "experiment": "enzyme assay", "type": "biochemical", "conditions": "1.0E-06 M"}, "hERG": {"target": "hERG (Homo sapiens, UniProt Q12809)", "experiment": "Ion channel selectivity patch clamp"}, "PDE3A (h)": {"target": "PDE3A (h) (Homo sapiens, UniProt Q14432)", "sequence (Q14432 whole entry)": "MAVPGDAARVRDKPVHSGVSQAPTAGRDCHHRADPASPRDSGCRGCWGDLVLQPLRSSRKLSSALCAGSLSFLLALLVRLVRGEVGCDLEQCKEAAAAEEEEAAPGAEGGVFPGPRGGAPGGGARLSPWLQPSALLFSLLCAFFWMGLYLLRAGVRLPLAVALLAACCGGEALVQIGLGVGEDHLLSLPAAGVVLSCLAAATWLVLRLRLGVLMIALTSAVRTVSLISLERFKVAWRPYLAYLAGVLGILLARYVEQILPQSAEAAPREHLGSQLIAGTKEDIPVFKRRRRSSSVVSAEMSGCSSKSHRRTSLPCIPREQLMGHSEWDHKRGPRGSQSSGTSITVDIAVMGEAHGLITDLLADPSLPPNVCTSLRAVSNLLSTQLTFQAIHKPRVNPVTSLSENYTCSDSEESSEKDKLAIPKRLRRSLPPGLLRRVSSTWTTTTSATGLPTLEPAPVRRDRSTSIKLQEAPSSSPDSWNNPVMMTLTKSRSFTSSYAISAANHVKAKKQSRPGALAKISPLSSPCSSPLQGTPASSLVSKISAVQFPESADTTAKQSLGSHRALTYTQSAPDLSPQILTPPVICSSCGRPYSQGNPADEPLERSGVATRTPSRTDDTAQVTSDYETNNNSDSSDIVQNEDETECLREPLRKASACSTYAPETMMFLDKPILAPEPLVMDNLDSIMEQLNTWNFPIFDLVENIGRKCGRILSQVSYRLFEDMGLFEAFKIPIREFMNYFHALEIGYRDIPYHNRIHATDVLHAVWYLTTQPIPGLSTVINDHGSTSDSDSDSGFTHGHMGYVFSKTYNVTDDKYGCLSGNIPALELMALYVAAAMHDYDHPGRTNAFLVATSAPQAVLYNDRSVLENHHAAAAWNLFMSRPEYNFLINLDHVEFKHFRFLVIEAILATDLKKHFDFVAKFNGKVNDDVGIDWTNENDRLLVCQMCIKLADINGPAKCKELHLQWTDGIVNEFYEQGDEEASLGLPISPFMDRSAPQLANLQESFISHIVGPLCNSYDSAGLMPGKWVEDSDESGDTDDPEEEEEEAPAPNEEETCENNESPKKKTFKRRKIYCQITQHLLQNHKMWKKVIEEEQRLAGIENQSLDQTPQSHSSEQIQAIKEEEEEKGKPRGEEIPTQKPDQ", "experiment": "biochemical", "conditions": "1.0E-06 M"}, "5-HT7 (h)": {"target": "5-HT7 (h) (Homo sapiens, UniProt P34969)", "sequence (P34969 whole entry)": "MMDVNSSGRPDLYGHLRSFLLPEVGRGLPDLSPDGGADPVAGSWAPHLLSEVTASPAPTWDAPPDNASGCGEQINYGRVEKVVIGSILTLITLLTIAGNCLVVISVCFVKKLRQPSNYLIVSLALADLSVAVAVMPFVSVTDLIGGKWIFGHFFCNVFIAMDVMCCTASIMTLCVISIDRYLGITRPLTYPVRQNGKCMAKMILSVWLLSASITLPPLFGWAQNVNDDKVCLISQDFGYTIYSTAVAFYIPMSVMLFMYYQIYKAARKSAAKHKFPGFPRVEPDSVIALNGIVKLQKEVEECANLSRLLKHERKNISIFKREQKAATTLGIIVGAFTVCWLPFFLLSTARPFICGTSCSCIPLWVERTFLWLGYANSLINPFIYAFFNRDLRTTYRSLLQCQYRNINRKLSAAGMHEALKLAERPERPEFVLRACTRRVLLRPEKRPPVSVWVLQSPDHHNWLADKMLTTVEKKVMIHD", "experiment": "biochemical"}, "MCH1 (h)": {"target": "T4, MCH1 (h) (Homo sapiens, UniProt Q99705)", "T4 construct": "host or cells: CHO cells", "T4 sequence (Q99705 whole entry)": "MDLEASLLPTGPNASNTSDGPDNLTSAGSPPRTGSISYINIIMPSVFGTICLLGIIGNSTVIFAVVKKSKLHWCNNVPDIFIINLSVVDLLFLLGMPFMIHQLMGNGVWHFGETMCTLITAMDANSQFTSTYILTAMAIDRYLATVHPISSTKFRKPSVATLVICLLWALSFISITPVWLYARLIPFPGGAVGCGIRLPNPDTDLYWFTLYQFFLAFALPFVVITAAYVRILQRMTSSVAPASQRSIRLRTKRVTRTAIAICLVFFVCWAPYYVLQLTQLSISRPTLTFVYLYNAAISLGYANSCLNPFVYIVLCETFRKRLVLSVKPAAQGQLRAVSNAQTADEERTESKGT", "type": "binding", "conditions": "1.0E-06 M"}, "CysLT1 (LTD4) (h)": {"target": "T5, CysLT1 (LTD4) (h) (Homo sapiens, UniProt Q9Y271)", "T5 construct": "host or cells: CHO cells", "T5 sequence (Q9Y271 1-337)": "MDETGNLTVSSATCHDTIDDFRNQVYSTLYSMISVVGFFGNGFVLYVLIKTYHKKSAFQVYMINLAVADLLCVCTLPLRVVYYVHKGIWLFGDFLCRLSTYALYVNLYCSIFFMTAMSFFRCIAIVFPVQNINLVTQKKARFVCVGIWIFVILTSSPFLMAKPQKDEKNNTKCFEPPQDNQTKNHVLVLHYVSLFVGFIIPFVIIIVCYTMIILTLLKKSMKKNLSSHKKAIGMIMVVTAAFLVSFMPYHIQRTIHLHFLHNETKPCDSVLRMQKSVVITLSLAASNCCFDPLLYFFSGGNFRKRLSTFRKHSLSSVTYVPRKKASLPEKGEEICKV", "type": "binding", "conditions": "1.0E-06 M"}, "ETA (h)": {"target": "T6, ETA (h) (Homo sapiens, UniProt P25101)", "T6 construct": "host or cells: CHO cells", "T6 sequence (P25101 21-427)": "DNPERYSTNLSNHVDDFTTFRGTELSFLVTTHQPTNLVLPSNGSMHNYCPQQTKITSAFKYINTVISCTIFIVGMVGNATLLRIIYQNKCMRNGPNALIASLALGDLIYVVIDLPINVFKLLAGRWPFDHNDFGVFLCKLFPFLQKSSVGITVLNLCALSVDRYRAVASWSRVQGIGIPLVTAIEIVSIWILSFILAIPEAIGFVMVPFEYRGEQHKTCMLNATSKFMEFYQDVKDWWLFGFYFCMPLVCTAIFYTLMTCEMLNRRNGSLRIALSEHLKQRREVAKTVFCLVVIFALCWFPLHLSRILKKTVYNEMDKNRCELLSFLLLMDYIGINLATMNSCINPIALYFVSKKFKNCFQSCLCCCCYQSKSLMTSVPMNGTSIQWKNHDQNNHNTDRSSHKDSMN", "type": "binding", "conditions": "1.0E-06 M"}}, "note": "“Also recorded” adds a separate entry of the source. Where two headings read alike, the source gives them in different places.", "data": [{"smiles": "Cn1c(=O)n(CCCO)c(=O)c2c1nc(Oc1cccc(Cl)c1)n2Cc1ccc(Cl)cc1", "note": "[HC-070]", "values": [{"measurement": "CS-US fear learning (freezing)", "setting": "C57BL/6J mice", "value": "without an effect; also recorded: did not affect fear learning"}, {"measurement": "fear memory expression to the CS", "setting": "C57BL/6J mice", "value": "no drug effect"}, {"measurement": "fear memory expression to the context", "setting": "C57BL/6J mice", "value": "without effect; also recorded: no drug effect"}]}, {"smiles": "Cn1c(=O)n(CCCO)c(=O)c2c1nc(Oc1cccc(OC(F)(F)F)c1)n2Cc1ccc(Cl)cc1", "note": "[HC-608]", "values": [{"measurement": "inhibition at 1 µM", "setting": "COX2 (h); read-out: % Inhibition 1st", "value": -5.6, "unit": "%"}, {"measurement": "inhibition at 1 µM", "setting": "COX2 (h); read-out: % Inhibition 2nd", "value": 11.8, "unit": "%"}, {"measurement": "inhibition at 1 µM", "setting": "COX2 (h); read-out: % Inhibition Mean", "value": 3.1, "unit": "%"}, {"measurement": "% Inhibition 1st", "setting": "TR (TH)", "value": 3.2, "unit": "%"}, {"measurement": "% Inhibition 2nd", "setting": "TR (TH)", "value": -1.6, "unit": "%"}, {"measurement": "% Inhibition Mean", "setting": "TR (TH)", "value": 0.8, "unit": "%"}, {"measurement": "inhibition at 1 µM", "setting": "motilin (h); 1.0E-06 M, read-out: % Inhibition 1st", "value": -25.4, "unit": "%"}, {"measurement": "inhibition at 1 µM", "setting": "motilin (h); 1.0E-06 M, read-out: % Inhibition 2nd", "value": -16.2, "unit": "%"}, {"measurement": "inhibition at 1 µM", "setting": "motilin (h); read-out: % Inhibition Mean", "value": -20.8, "unit": "%"}, {"measurement": "% Inhibition 1st", "setting": "ATPase (Na+/K+)", "value": 3.0, "unit": "%"}, {"measurement": "% Inhibition 2nd", "setting": "ATPase (Na+/K+)", "value": -1.5, "unit": "%"}, {"measurement": "% Inhibition Mean", "setting": "ATPase (Na+/K+)", "value": 0.8, "unit": "%"}, {"measurement": "inhibition at 1 µM", "setting": "5-HT6 (h); read-out: % Inhibition 1st", "value": -5.1, "unit": "%"}, {"measurement": "inhibition at 1 µM", "setting": "5-HT6 (h); read-out: % Inhibition 2nd", "value": 7.3, "unit": "%"}, {"measurement": "inhibition at 1 µM", "setting": "5-HT6 (h); read-out: % Inhibition Mean", "value": 1.1, "unit": "%"}, {"measurement": "inhibition at 1 µM", "setting": "ACE (h); read-out: % Inhibition 1st", "value": 0, "unit": "%"}, {"measurement": "inhibition at 1 µM", "setting": "ACE (h); read-out: % Inhibition 2nd", "value": 6, "unit": "%"}, {"measurement": "inhibition at 1 µM", "setting": "ACE (h); read-out: % Inhibition Mean", "value": 3, "unit": "%"}, {"measurement": "IC50", "setting": "hERG", "value": "1.15 ± 0.13", "unit": "µM"}, {"measurement": "inhibition at 1 µM", "setting": "PDE3A (h); read-out: % Inhibition 1st", "value": 3.1, "unit": "%"}, {"measurement": "inhibition at 1 µM", "setting": "PDE3A (h); read-out: % Inhibition 2nd", "value": 0.2, "unit": "%"}, {"measurement": "inhibition at 1 µM", "setting": "PDE3A (h); read-out: % Inhibition Mean", "value": 1.7, "unit": "%"}, {"measurement": "inhibition at 1 µM", "setting": "5-HT7 (h); read-out: % Inhibition 1st", "value": 12.1, "unit": "%"}, {"measurement": "inhibition at 1 µM", "setting": "5-HT7 (h); read-out: % Inhibition 2nd", "value": 10.9, "unit": "%"}, {"measurement": "inhibition at 1 µM", "setting": "5-HT7 (h); read-out: % Inhibition Mean", "value": 11.5, "unit": "%"}, {"measurement": "inhibition at 1 µM", "setting": "MCH1 (h); read-out: % Inhibition 1st", "value": 7.9, "unit": "%"}, {"measurement": "inhibition at 1 µM", "setting": "MCH1 (h); read-out: % Inhibition 2nd", "value": -27.2, "unit": "%"}, {"measurement": "inhibition at 1 µM", "setting": "MCH1 (h); read-out: % Inhibition Mean", "value": -9.6, "unit": "%"}, {"measurement": "inhibition at 1 µM", "setting": "CysLT1 (LTD4) (h); read-out: % Inhibition 1st", "value": 13.2, "unit": "%"}, {"measurement": "inhibition at 1 µM", "setting": "CysLT1 (LTD4) (h); read-out: % Inhibition 2nd", "value": 3.4, "unit": "%"}, {"measurement": "inhibition at 1 µM", "setting": "CysLT1 (LTD4) (h); read-out: % Inhibition Mean", "value": 8.3, "unit": "%"}, {"measurement": "inhibition at 1 µM", "setting": "ETA (h); read-out: % Inhibition 1st", "value": -33.9, "unit": "%"}, {"measurement": "inhibition at 1 µM", "setting": "ETA (h); read-out: % Inhibition 2nd", "value": 6.7, "unit": "%"}, {"measurement": "inhibition at 1 µM", "setting": "ETA (h); read-out: % Inhibition Mean", "value": -13.6, "unit": "%"}]}]}
